# Several values for one entry are separate records, joined by “and”; a condition that tells them apart may be missing. Equal entries are not always repeated.
# Assays:
# [1] = biological target: PfPMT (Plasmodium falciparum, UniProt Q8IDQ9); test: PfPMT gene replacement yeast growth; conditions: 100µM
# [2] = system: NCI60 human tumor cell lines; test: NCI60 5-dose (dose-response) assay; type: cell-based; conditions: for MGLI50 = Mean Growth Log I50: 5-dose, mean over NCI60 panel; for _MID Log10GI50 / _MID Log10LC50 / _MID Log10TGI: mean over cell lines of one experiment
# Text: Columns IE-KK. NCI: Misra group (data presented first in this paper). NCI60 anti-tumor cell activity. Methods: […] These 60 cell lines, along with others, have been developed at NCI and have been maintained and distributed for research purposes by NCI for over 25 years. The experimental readout provides both inhibition of cell growth and cell kill. The screen was originally designed to prioritize agents for further evaluation. […] This is the same as for the 5-dose assay, described on http://dtp.cancer.gov/branches/btb/ivclsp.html. […] Testing beyond the initial screen: There were 133 compounds that passed threshold to proceed to 5-dose (dose-response) (data are available for the 133 compounds at the DTP public website (dtp.cancer.gov) by searching either the MMV number or NSC number). After examination of the 5-dose data, 10 compounds were selected for repeat testing based generally on potency, differential cell activity or activity on an individual cell lines or cell line panel. A summary of the data for the 10 compounds of interest is in the table below.
# Sequence of PfPMT (Q8IDQ9 whole entry): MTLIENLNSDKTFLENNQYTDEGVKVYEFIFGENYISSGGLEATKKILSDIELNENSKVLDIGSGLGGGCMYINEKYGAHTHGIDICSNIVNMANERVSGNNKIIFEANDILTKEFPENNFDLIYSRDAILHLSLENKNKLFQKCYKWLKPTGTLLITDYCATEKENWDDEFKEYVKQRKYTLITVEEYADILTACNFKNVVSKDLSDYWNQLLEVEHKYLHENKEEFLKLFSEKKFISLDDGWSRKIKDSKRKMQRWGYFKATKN
smiles,measurement,setting,value
COc1ccc(C2c3ccc4ccccc4c3Oc3ncn(CCCN(C)C)c(=N)c32)cc1 (centres unmarked) [MMV667491],candidate inhibitors of PfPMT activity (yeast functional assay),[1],candidate inhibitors of PfPMT activity
Oc1c(CN2CCN(c3ccccc3F)CC2)cc(Br)c2cccnc12 [MMV000760],Notes (NCI60 5-dose activity pattern),[2],Differential
same,MGLI50 = Mean Growth Log I50,[2],-6.02
same,_MID Log10GI50,[2]; listed as 766634/2,-6.03 Molar and -6.0 Molar
same,_MID Log10LC50,[2]; listed as 766634/2,-4.04 Molar and -4.06 Molar
same,_MID Log10TGI,[2]; listed as 766634/2,-4.67 Molar and -4.74 Molar
N=c1n(CCN2CCCCC2)c2ccccc2n1CC(=O)c1ccc(Cl)c(Cl)c1 [MMV396723],candidate inhibitors of PfPMT activity (yeast functional assay),[1],candidate inhibitors of PfPMT activity
CN1c2ccccc2N(C)C1c1ccc2c(c1)OCO2 [MMV666009],candidate inhibitors of PfPMT activity (yeast functional assay),[1],candidate inhibitors of PfPMT activity
O=C(Nc1ccc(-c2nc3cc(NC(=O)c4ccc(Cl)cc4)ccc3[nH]2)cc1)c1ccc(Cl)cc1 [MMV006962],Notes (NCI60 5-dose activity pattern),[2],"Differential, CNS"
same,MGLI50 = Mean Growth Log I50,[2],-5.61
OC(CNCC1CCCO1)Cn1c2ccc(Cl)cc2c2cc(Cl)ccc21 (centres unmarked) [MMV396736],candidate inhibitors of PfPMT activity (yeast functional assay),[1],candidate inhibitors of PfPMT activity
Cc1ccc2c(C)nc(Nc3nc(C)cc(-c4ccccc4)n3)nc2c1 [MMV007041],candidate inhibitors of PfPMT activity (yeast functional assay),[1],candidate inhibitors of PfPMT activity
CCOc1cc(Br)c(C(C)NC(=O)c2cccc(OC)c2)cc1OCC (centres unmarked) [MMV665796],MGLI50 = Mean Growth Log I50,[2],-5
same,_MID Log10LC50,[2],-4.0 Molar
same,_MID Log10GI50,[2]; listed as 766556/2,-5.02 Molar and -4.97 Molar
same,_MID Log10TGI,[2]; listed as 766556/2,-4.07 Molar and -4.08 Molar
COc1cc(C(=O)ON=C(N)Cc2cccc3ccccc23)cc(OC)c1OC [MMV666687],candidate inhibitors of PfPMT activity (yeast functional assay),[1],candidate inhibitors of PfPMT activity
COc1cccc(C(=O)NC(c2ccc(C)cc2)c2cc(Cl)c3cccnc3c2O)c1 (centres unmarked) [MMV665969],MGLI50 = Mean Growth Log I50,[2],-6.29
same,_MID Log10GI50,[2],-6.3 Molar
same,_MID Log10LC50,[2],-4.16 Molar
same,_MID Log10TGI,[2],-4.91 Molar
CCCCCCn1c(=N)n(CC(O)COc2cccc(C)c2)c2ccccc21 (centres unmarked) [MMV000445],candidate inhibitors of PfPMT activity (yeast functional assay),[1],candidate inhibitors of PfPMT activity
CCOc1ccc(Nc2c3ccccc3nc3ccccc23)cc1 [MMV000304],candidate inhibitors of PfPMT activity (yeast functional assay),[1],candidate inhibitors of PfPMT activity
O=C(NC1CCN(Cc2ccccc2)CC1)c1cc(-c2ccncc2)nc2ccc(Cl)cc12 [MMV020275],MGLI50 = Mean Growth Log I50,[2],-4.93
same,_MID Log10GI50,[2]; listed as 766585/2,-4.95 Molar and -4.91 Molar
same,_MID Log10LC50,[2]; listed as 766585/2,-4.05 Molar and -4.01 Molar
same,_MID Log10TGI,[2]; listed as 766585/2,-4.34 Molar and -4.19 Molar
CCOC(=O)c1cnc2ccc(OC)cc2c1Nc1ccc(N2CCN(C)CC2)cc1 [MMV000704],candidate inhibitors of PfPMT activity (yeast functional assay),[1],candidate inhibitors of PfPMT activity
Cc1ccc(OCCCCCCNCCO)c(C)c1 [MMV666020],MGLI50 = Mean Growth Log I50,[2],-4.9
same,_MID Log10GI50,[2]; listed as 766672/2,-4.93 Molar and -4.86 Molar
same,_MID Log10LC50,[2]; listed as 766672/2,-4.21 Molar and -4.19 Molar
same,_MID Log10TGI,[2]; listed as 766672/2,-4.56 Molar and -4.52 Molar
CCOc1cc(Cl)c(C(C)NC(=O)c2cccc(OC)c2)cc1OCC (centres unmarked) [MMV665803],MGLI50 = Mean Growth Log I50,[2],-5.01
same,_MID Log10LC50,[2],-4.0 Molar
same,_MID Log10GI50,[2]; listed as 766546/2,-5.1 Molar and -4.93 Molar
same,_MID Log10TGI,[2]; listed as 766546/2,-4.1 Molar and -4.05 Molar
CCCCCCc1cc2cc(-c3nc4ccccc4[nH]3)c(=Nc3ccccc3C)oc2cc1O [MMV666597],Notes (NCI60 5-dose activity pattern),[2],Differential
same,MGLI50 = Mean Growth Log I50,[2],-5.57
